This note sets out measurements from PMC12257394, “Design, Synthesis, and Biological Evaluation of Ferrocenyl–Cyclo-(Gly‑L‑Pro) Hybrids Sensitizing Multidrug-Resistant Cancer Cells to Anticancer Agents” (ACS Medicinal Chemistry Letters, 2025).

Holding throughout (assay type): cell-based, human
Experiment [1] has as its system MRC-5 fibroblasts. Description: Neutral red uptake viability assay, MRC-5. The method, then:
(§1) The normal lung fibroblast MRC-5 and colorectal adenocarcinoma SW620 cell lines used in this experiment were purchased from American Type Culture Collection (USA) via LGC […]
(§2) Standards. Multidrug-resistant variants of SW620 cells were developed in our laboratory as described previously.10, 11 All cells were cultured under standard conditions (37°C, 5% CO2, 100% humidity) in high-glucose DMEM supplemented with GlutaMaxTM, HEPES (ThermoFisher Scientific, USA), and 10% fetal bovine serum (EURx, Poland). Cells were routinely tested for potential Mycoplasma contamination using the MycoProbe Mycoplasma Detection kit (R&D System, USA).
(§3) In total, 104 cells in 100 µL of complete medium were plated per well of a 96-well plate and left overnight to allow cells to adhere to the surface. Then, the cells were exposed to a desired concentration of tested compound(s). Stock solutions were prepared in DMSO and used immediately. The final DMSO concentration was constant and nontoxic (0.1% v/v). After 70-h incubation, neutral red was added to the final concentration of 1 mM. After another 2 h, the medium was aspirated, and cells were washed twice with PBS. Dye was released using 100 µL of a solubilizer (1% acetic acid in 50% ethanol) on an orbital shaker (10 min). Absorbance was read at 540 nm using EnVision Multilabel Plate Reader (Perkin Elmer, USA). Results were expressed as % of control. The IC50 parameters were calculated using GraphPad Prism version 10 (GraphPad Software, Boston, Massachusetts USA). […]
(§4) All experiments were performed in triplicate (n = 3).

The test system of experiment [2] is SW620 cells. Description: Neutral red uptake viability assay, SW620. As to conditions: 72 h, n = 3, ± SD. The method, then:
(§5) To evaluate this aspect, we investigated the viability of SW620 colon cancer cells and their multidrug-resistant variants (overexpressing ABCB1, ABCC1, and ABCG2) exposed to 1 and 10 μM 4a–e using a neutral red uptake assay (Table ). In general, compounds 4a–e exerted little or no cytotoxic effect on either SW620 or multidrug-resistant sublines even at 10 μM, with the remarkable exception of SW620C (cisplatin-selected variant of SW620) cells, which turned out to be relatively susceptible toward ferrocenyl 4a–c. […] This trend may reflect steric or electronic contributions to cellular uptake or interaction with intracellular targets. […] However, since E/Z isomeric data are currently available only for compound 4c, this hypothesis requires validation. To quantify this effect, IC50 values were determined (Table ). […]
as §1, §2, §3, §4

The test system of experiment [3] is SW620E cells (etoposide-resistant). Briefly: Neutral red uptake viability assay, SW620E. As to conditions: 72 h, n = 3, ± SD. The protocol: as §5, §1, §2, §3, §4
For experiment [4], the system named is SW620M cells (methotrexate-resistant). Description: Neutral red uptake viability assay, SW620M. As to conditions: 72 h, n = 3, ± SD. The protocol:
In general, compounds 4a–e exerted little or no cytotoxic effect on either SW620 or multidrug-resistant sublines even at 10 μM, with the remarkable exception of SW620C (cisplatin-selected variant of SW620) cells, which turned out to be relatively susceptible toward ferrocenyl 4a–c. […] This trend may reflect steric or electronic contributions to cellular uptake or interaction with intracellular targets. […] However, since E/Z isomeric data are currently available only for compound 4c, this hypothesis requires validation. To quantify this effect, IC50 values were determined (Table ). […]
as §1, §2, §3, §4

In experiment [5] the test system is ABCB1-overexpressing SW620D cells. Description: MDR reversal assay (ERP), SW620D.
Source text: (§6) We investigated the potency of 4a–e to inhibit ABC transporters (ABCB1, ABCC1, and ABCG2) by determining their enhancement of reversal potency (ERP) values. ERP represents fold changes in the IC50 values of anticancer drugs in multidrug-resistant cancer sublines (ABCB1-overexpressing SW620D, SW620E, and SW620V; ABCC1-overexpressing SW620M; ABCG2-overexpressing SW620C and SW620Mito) exposed to a combination of the investigated compounds and anticancer agents at equimolar concentrations, compared with values obtained with drugs alone (Tables S2 and S3 and Figure ).
as §2
(§7) In total, 104 cells in 100 µL of complete medium were plated per well of a 96-well plate and left overnight to allow cells to adhere to the surface. Then, the cells were exposed to a desired concentration of tested compound(s). Stock solutions were prepared in DMSO and used immediately. The final DMSO concentration was constant and nontoxic (0.1% v/v). After 70-h incubation, neutral red was added to the final concentration of 1 mM. After another 2 h, the medium was aspirated, and cells were washed twice with PBS. Dye was released using 100 µL of a solubilizer (1% acetic acid in 50% ethanol) on an orbital shaker (10 min). Absorbance was read at 540 nm using EnVision Multilabel Plate Reader (Perkin Elmer, USA). Results were expressed as % of control. The IC50 parameters were calculated using GraphPad Prism version 10 (GraphPad Software, Boston, Massachusetts USA).
(§8) The enhancement of reversal potency (ERP) value determination
(§9) For MDR reversal assays, cytotoxic agents were co-administered with compounds 4a–4e at equimolar concentrations in a range of 10 nM to 100 µM. IC₅₀ values were determined in ABCB1-overexpressing SW620 cell line variants. The enhancement of reversal potency (ERP) was calculated using the following formula: ERP = IC₅₀(drug)MDR / IC₅₀(drug + compound)MDR. All experiments were performed in triplicate (n = 3).

For experiment [6], the system named is ABCB1-overexpressing SW620E cells. Description: MDR reversal assay (ERP), SW620E.
Source text: as §6, §2, §7, §8, §9

In experiment [7] the test system is ABCC1-overexpressing SW620M cells. Description: MDR reversal assay (ERP), SW620M.
Source text: as §6, §2, §7, §8, §9

The subject of experiment [8] is ABCG2-overexpressing SW620C cells. Briefly: MDR reversal assay (ERP), SW620C.
Source text: as §6, §2, §7, §8, §9

For experiment [9], the system named is ABCG2-overexpressing SW620Mito cells. Description: MDR reversal assay (ERP), SW620Mito.
Source text: as §6, §2, §7, §8, §9

With `O=C1N/C(=C\c2ccccc2)C(=O)N2CCC[C@@H]12` [(S,Z)-4e], the survival rate in [1] (MRC-5, 10 μM, 72 h exposure, n = 3, ± SD) is on record as 102 ± 6%; in experiment [2] (SW620, 1 μM), 94 ± 5.4%; in experiment [2] (SW620, 10 μM), 92 ± 5.0%; in [3] (1 μM), 94 ± 1.9%; in [3] (10 μM), 96 ± 4.4%; in experiment [4] (1 μM), 96 ± 4.8%. In [4] (10 μM), this compound yielded a survival rate of 95 ± 4.0%. In [1] (MRC-5, 10 microM (xlsx)), the “Surviwal rate of MRC-5 at 10 microM” value is on record as 102_6. The “ERP value, doxorubicin + compound” value in experiment [5] (SW620D (xlsx)) amounted to 0.70. For the same compound, the “ERP = IC50(drug)MDR/IC50(drug+4)MDR” value in experiment [5] (doxorubicin, SW620D) amounted to 0.70; in experiment [6] (etoposide, SW620E) it was 0.88; in [7] (methotrexate, SW620M), 1.28; in [8] (cisplatin, SW620C), 0.70; in [9] (mitoxantrone, SW620Mito), 1.01. For the same compound, the “ERP value, etoposide + compound” value in experiment [6] (SW620E (xlsx)) came to 0.88. Moreover, in experiment [7] (SW620M (xlsx)), the “ERP value, methotrexate + compound” value is on record as 1.28. In addition, the “ERP value, cisplatin + compound” value in experiment [8] (SW620C (xlsx)) is 0.70. Besides, the “ERP value, mitoxantrone + compound” value in experiment [9] (SW620Mito (xlsx)) is recorded as 1.01.
